From article PMC9000480, “Enhancement of the Anti-Inflammatory Activity of NSAIDs by Their Conjugation with 3,4,5-Trimethoxybenzyl Alcohol” (Molecules, 2022)
Marks after values point to notes of the source that are not given here.

Assays:
[1] = tested on: carrageenan-induced rat paw edema; experiment: carrageenan-induced rat paw edema; format: in vivo; conditions: i.p. 0.15 mmol/kg, 3.5 h post carrageenan, female rats, vs controls given carrageenan only; for inhibition in vivo at 150 µmol/kg: Rattus norvegicus, ip, 3.5 h
Experimental: Carrageenan-induced inflammation model has significant value for evaluating anti-inflammatory agents. Carrageenan administration causes an acute and local inflammatory response. In the early phase (0–1 h), bradykinin, histamine, tachykinins, complement and reactive oxygen and nitrogen species are involved, whereas prostaglandins and various cytokines such as IL-1β, TNF-α are released in the second phase, more than one hour after administration.
Total of 0.1 mL of an aqueous solution of carrageenan (1% w/v) was injected i.d. into the right hind paw of rats, with the left paw serving as control. The tested compounds (suspended in water with a few drops of Tween 80) were given i.p. (0.15 mmol/kg) 5 min before the carrageenan administration. After 3.5 h, the hind paws were excised and weighed separately. The produced edema was estimated as paw weight increase.

ovine COX-1 = tested on: T1, ovine COX-1; experiment: COX Inhibitor Screening Assay kit, COX-1; format: biochemical; conditions: compound 0.05 μM, arachidonic acid 0.1 μM
T1 construct: purchased Cayman Chemical Co., Ann Arbor, MI, USA
Source text: […]. κ-Carrageenan and lipoxygenase type I-B from soybean were purchased from Sigma (St. Louis, MO, USA). COX inhibition was estimated using the “COX Inhibitor Screening Assay” kit (Cayman Chemical Co., Ann Arbor, MI, USA). For the in vivo experiments, female Wistar rats (160–180 g, 4–5 months old) were kept in the Centre of the School of Veterinary Medicine (EL54 BIO42), Aristotelian University of Thessaloniki, which is registered by the official state veterinary authorities (presidential degree 56/2013, in harmonization with the European Directive 2010/63/EEC). The Animal Ethics Committee of the Prefecture of Central Macedonia (no. 270079/2500) approved the experimental protocols.
(§1) The effect of compounds on COX-1 and COX-2 activity was measured using a commercial kit and applying the instructions of the manufacturer. The kit uses ovine COX-1 and human recombinant COX-2 enzymes. The assay measures PGF2a produced by SnCl2 reduction of COX-derived PGH2. The prostanoid product was quantified via enzyme immunoassay using a broadly specific antibody that binds to all the major prostaglandin compounds.

soybean LOX = target: T2, soybean LOX (Glycine max, UniProt P08170); experiment: inhibition of soybean lipoxygenase; format: biochemical; conditions: for % inhibition of lipoxygenase: highest soluble concentration; for IC50: after 7 min of incubation, sodium linoleate 100 μM, pH 9.0, 28 °C
T2 construct: purchased Sigma (St. Louis, MO, USA)
T2 sequence (P08170 1-839): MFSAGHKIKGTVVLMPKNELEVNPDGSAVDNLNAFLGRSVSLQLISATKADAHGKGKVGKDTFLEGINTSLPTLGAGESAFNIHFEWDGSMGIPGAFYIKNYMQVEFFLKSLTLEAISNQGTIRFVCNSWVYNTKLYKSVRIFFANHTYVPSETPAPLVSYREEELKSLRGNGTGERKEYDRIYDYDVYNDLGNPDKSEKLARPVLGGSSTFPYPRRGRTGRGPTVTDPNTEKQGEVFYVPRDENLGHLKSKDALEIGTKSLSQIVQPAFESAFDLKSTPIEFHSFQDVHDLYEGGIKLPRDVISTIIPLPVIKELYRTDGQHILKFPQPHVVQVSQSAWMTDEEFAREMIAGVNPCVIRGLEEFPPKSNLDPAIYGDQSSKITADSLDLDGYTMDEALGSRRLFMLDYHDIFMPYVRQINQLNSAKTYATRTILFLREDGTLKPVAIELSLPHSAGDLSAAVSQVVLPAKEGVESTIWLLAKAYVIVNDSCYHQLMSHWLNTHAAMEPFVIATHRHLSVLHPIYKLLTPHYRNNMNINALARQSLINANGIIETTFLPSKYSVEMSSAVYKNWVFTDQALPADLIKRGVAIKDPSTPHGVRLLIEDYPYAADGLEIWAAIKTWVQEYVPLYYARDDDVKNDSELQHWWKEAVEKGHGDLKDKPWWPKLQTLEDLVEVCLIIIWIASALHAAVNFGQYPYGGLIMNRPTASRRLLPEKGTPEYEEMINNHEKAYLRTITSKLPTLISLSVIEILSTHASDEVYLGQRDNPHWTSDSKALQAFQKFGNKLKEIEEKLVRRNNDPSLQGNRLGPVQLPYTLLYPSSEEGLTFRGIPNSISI
Experimental: Soybean LOX, because of structural and functional similarities with mammalian LOXs, is commonly used for the study of anti-inflammatory agents.
The reaction mixture contained (final concentration) the test compounds, dissolved in ethanol (10–300 μM), or the solvent (control), soybean LOX, dissolved in 0.9% NaCl solution (250 u/mL) and sodium linoleate (100 μM), in Tris–HCl buffer, pH 9.0. […] For the estimation of the type of inhibition, the above experiments were repeated, using 1 mM sodium linoleate, which is higher than the saturating substrate concentration.

[2] = preliminary stability in acetone-water (TLC); format: physicochemical; conditions: 4:1 acetone-water, 1 mM, 37 °C, up to 72 h
Experimental: (§2) In a preliminary stability control experiment, compound 16, with the highest anti-inflammatory activity, was dissolved in an acetone-water mixture and incubated for 72 h at 37 °C. Samples were tested by thin layer chromatography (TLC) at the time of the preparation and after 2.5, 5, 24, 48, and 72 h. The same experiment was repeated, but plasma from a healthy rat was added, and tested by TLC at the time of preparation and after 24 h of incubation at 37 °C.
(§3) A solution of 16 in a 4:1 acetone–water mixture (1 mM) was prepared and 5 μL of this were applied on a TLC silica gel aluminum sheet and developed with petroleum ether-ethyl acetate (1:1), at the time of preparation and after 2.5, 5, 24, 48, and 72 h of incubation (37 °C). The same experiment was repeated, adding 1 mL of rat plasma. TLC was performed at the time of preparation and after 24 h.

[3] = preliminary stability with rat plasma (TLC); format: in vitro ADME; conditions: acetone-water with rat plasma added, 37 °C, 24 h
Experimental: as §2, §3

[4] = tested on: rat hepatic microsomal membranes; experiment: Fe(II)-ascorbate induced lipid peroxidation of rat hepatic microsomal membranes; conditions: 1 mM, after 45 min of incubation
Experimental: Enzymatically inactivated rat hepatic microsomal membranes, rich in polyunsaturated fatty acids, were used and peroxidation was induced by Fe(II)-ascorbate. Compounds 21 and 22, expected to exert antioxidant activity due to the tyrosine phenolic group, were tested.
The peroxidation of heat-inactivated (90°, 90 s) rat liver microsomal fraction was induced by ascorbic acid (0.2 mM) and ferrous sulphate (10 μΜ). The studied compounds, in dimethylsulfoxide, were added at 1 mM. Aliquots were taken from the incubation mixture (37 °C) for 45 min. Lipid peroxidation was assessed spectrophotometrically (535/600 nm) as 2-thiobarbituric acid reactive material.

human recombinant COX-2 = tested on: T3, human recombinant COX-2; experiment: COX Inhibitor Screening Assay kit, COX-2; format: biochemical; conditions: compound 0.05 μM, arachidonic acid 0.1 μM
T3 construct: purchased Cayman Chemical Co., Ann Arbor, MI, USA
Experimental: COX inhibition was estimated using the “COX Inhibitor Screening Assay” kit (Cayman Chemical Co., Ann Arbor, MI, USA).
as §1

SMILES	IC50 (soybean LOX) [µM]	melting point [°C]	inhibition in vivo at 150 µmol/kg [1] [%]	also measured
COc1cc(COC(=O)CCNC(=O)C(C)c2cccc(C(=O)c3ccccc3)c2)cc(OC)c1OC (stereo not shown) [Compound 16, 3,4,5-Trimethoxybenzyl 3-(2-(3-benzoylphenyl)propanamido)propanoate]	–	–	91	% Edema Inhibition [1]: 91 *** %; COX-1 % Inhibition (ovine COX-1): 28%; % inhibition of lipoxygenase (soybean LOX; at 150 μΜ): 20%; stability (hydrolysis, TLC) [2]: not hydrolyzed; stability (hydrolysis, TLC) [3]: not hydrolyzed
COc1cc(COC(=O)C(C)NC(=O)Cc2c[nH]c3ccccc23)cc(OC)c1OC (stereo not shown) [Compound 23, 3,4,5-Trimethoxybenzyl 2-(2-(1H-indol-3-yl)acetamido)propanoate]	–	–	40.5	% inhibition of lipoxygenase (soybean LOX; at 150 μΜ): 15%
CC(C(=O)O)c1cccc(C(=O)c2ccccc2)c1 (stereo not shown) [Ketoprofen]	–	–	–	COX-1 % Inhibition (ovine COX-1): 94%; COX-2 % Inhibition (human recombinant COX-2): 49%
COC(=O)C1CCCN1C(=O)Cc1c[nH]c2ccccc12 (stereo not shown) [Compound 14a, 1-(2-(1H-indol-3-yl)acetyl)pyrrolidine-2-carboxylic acid (14) methyl ester]	–	–	0	–
COC(=O)C1CCCN1C(=O)C(C)c1ccc(CC(C)C)cc1 (stereo not shown) [Compound 8a]	–	–	20	–
O=C(O)Cc1c[nH]c2ccccc12 [Indole-3-acetic acid, reference compound]	–	–	0	% Edema Inhibition [1]: inactive
COC(=O)C(C)NC(=O)Cc1c[nH]c2ccccc12 (stereo not shown) [Compound 13a]	–	–	18	–
CC(C)Cc1ccc(C(C)C(=O)O)cc1 (stereo not shown) [Ibuprofen, reference compound]	–	–	36	% Edema Inhibition [1]: 36 ** %; COX-1 % Inhibition (ovine COX-1): 68%
COC(=O)CCNC(=O)C(C)c1ccc(CC(C)C)cc1 (stereo not shown) [Compound 5a]	–	–	14	–
COc1ccc2cc([C@H](C)C(=O)O)ccc2c1 [Naproxen]	–	–	11	COX-1 % Inhibition (ovine COX-1): 34%; COX-1 % Inhibition (ovine COX-1; listed as naproxen): mild activity; COX-2 % Inhibition (human recombinant COX-2): 17%; COX-2 % Inhibition (human recombinant COX-2; listed as naproxen): weak inhibitor

Now from value to compound, other results behind:

IC50 (soybean LOX) [µM]	melting point [°C]	SMILES	inhibition in vivo at 150 µmol/kg [1] [%]	also measured
85	68 to 70	COc1cc(COC(=O)C(Cc2ccc(O)cc2)NC(=O)C(C)c2cccc(C(=O)c3ccccc3)c2)cc(OC)c1OC (stereo not shown) [Compound 22, 3,4,5-Trimethoxybenzyl 2-(2-(3-benzoylphenyl)propanamido)-3-(4-hydroxyphenyl) propanoate]	59	effect against lipid peroxidation [4]: poor
41	–	COc1ccc2cc([C@H](C)C(=O)NCCC(=O)OCc3cc(OC)c(OC)c(OC)c3)ccc2c1 [Compound 17, (S)-3,4,5-trimethoxybenzyl 3-(2-(6-methoxynaphthalen-2-yl)propanamido)propanoate]	23	–
160	73 to 75	COc1cc(COC(=O)CCNC(=O)C(C)c2ccc(CC(C)C)cc2)cc(OC)c1OC (stereo not shown) [Compound 15, 3,4,5-Trimethoxybenzyl 3-(2-(4-isobutylphenyl)propanamido)propanoate]	35	–
–	50 to 53	COc1ccc2cc(C(C)C(=O)N3CCCC3C(=O)OCc3cc(OC)c(OC)c(OC)c3)ccc2c1 (stereo not shown) [Compound 20, 3,4,5-Trimethoxybenzyl1-(2-(6-methoxynaphthalen-2-yl)propanoyl) pyrrolidine-2-carboxylate]	37	% inhibition of lipoxygenase (soybean LOX; at 100 μΜ): 40%
128	58 to 60	COc1cc(COC(=O)C2CCCN2C(=O)Cc2c[nH]c3ccccc23)cc(OC)c1OC (stereo not shown) [Compound 24, 3,4,5-Trimethoxybenzyl1-(2-(1H-indol-3-yl)acetyl)pyrrolidine-2carboxylate]	0	–
83	85 to 87	COc1cc(COC(=O)C2CCCN2C(=O)C(C)c2ccc(CC(C)C)cc2)cc(OC)c1OC (stereo not shown) [Compound 18]	49	–
140	–	COc1cc(COC(=O)C2CCCN2C(=O)C(C)c2cccc(C(=O)c3ccccc3)c2)cc(OC)c1OC (stereo not shown) [Compound 19, 3,4,5-Trimethoxybenzyl 1-(2-(3-benzoylphenyl)propanoyl)pyrrolidine-2 carboxylate]	51	–
64	86 to 88	COc1cc(COC(=O)C(Cc2ccc(O)cc2)NC(=O)C(C)c2ccc(CC(C)C)cc2)cc(OC)c1OC (stereo not shown) [Compound 21, 3,4,5-Trimethoxybenzyl3-(4-hydroxyphenyl)-2-(2(4-isobutylphenyl)propanamido) propanoate]	67	COX-1 % Inhibition (ovine COX-1): 51%; effect against lipid peroxidation [4]: poor
